Results as given in patent US10266609B2, “Immunomodulating beta-1,6-D-glucans” (Innate Biotherapeutics, LLC, priority 2014, dated 2019).

The molecules below were run on Anti-β-1,6-Glucan IgG antibodies (affinity purified from IVIG, Baxter) (assay: ELISA: binding of oligosaccharides to anti-β-1,6-glucan antibodies). Conditions: plate coated with oligosaccharide in PBS; 40 ug/mL anti-Beta 1,6 Glucan IgG; anti-human IgG-HRP, TMB, absorbance at 620 nm.
Experimental: Binding of oligosaccharides to anti-β-1,6-glucan antibodies is performed as described in the following protocol.
• 1. […] Anti-β-1,6-Glucan IgG antibodies (affinity purified from IVIG, Baxter) • 6. […] PBS-Tween buffer (PH 7.2, 0.05% Tween 20, Kpl cat #51-12-01) II. Method: Detection of Anti-Beta Glucan IgG by ELISA • 1. Coat plate with oligosaccharides in PBS overnight at 4° C. • 2. Wash 3 times with 250 uL of PBS-Tween • 3. Empty plate • 4. Block plate with 200 uL of Casein for 1 hour at room temperature • 5. Empty plate • 6. Add 40 ug/mL anti-Beta 1,6 Glucan IgG (4 ug/well) in Casein • 7. Incubate for 45 min at room temperature • 8. Wash 3 times with 250 uL of PBS-Tween • 9. Empty plate • 10. Add detection antibody: anti-human IgG-HRP at 1:5000—in casein. Incubate for 45 min at room temperature in the dark • 11. Wash 5 times with 250 uL of PBS-Tween • 12. Empty plate • 13. Add 100 uL of one step ultra TMB • 14. Measure the absorbance at 620 nm every 1 min for 60 min Tables 1-3 provide ELISA assay data for certain glucan compounds.
Note: key: a plus (+) sign indicates that the glucan was active in the assay; a minus (−) sign indicates that the glucan was not active; the '+/−' symbol indicates inconclusive results.

| Structure (SMILES) | ELISA assay data: glucan active in detection of anti-beta glucan IgG |
| --- | --- |
| OC[C@H]1O[C@@H](OC[C@H]2O[C@@H](OC[C@H]3O[C@@H](OC[C@H]4O[C@@H](OC[C@H]5O[C@@H](OC[C@H]6O[C@@H](OC[C@H]7O[C@@H](OC[C@H]8O[C@@H](OC[C@H]9O[C@@H](OC[C@H]%10O[C@@H](OC[C@H]%11O[C@@H](OC[C@H]%12OC(O)[C@H](O)[C@@H](O)[C@@H]%12O)[C@H](O)[C@@H](O)[C@@H]%11O)[C@H](O)[C@@H](O)[C@@H]%10O)[C@H](O)[C@@H](O)[C@@H]9O)[C@H](O)[C@@H](O)[C@@H]8O)[C@H](O)[C@@H](O)[C@@H]7O)[C@H](O)[C@@H](O)[C@@H]6O)[C@H](O)[C@@H](O)[C@@H]5O)[C@H](O)[C@@H](O)[C@@H]4O)[C@H](O)[C@@H](O)[C@@H]3O)[C@H](O)[C@@H](O)[C@@H]2O)[C@H](O)[C@@H](O)[C@@H]1O (stereo partly drawn) [OH, n=12, [O-β-D-glucopyranosyl-1,6-]11-D-glucose] | + |
| OC[C@H]1O[C@@H](OC[C@H]2O[C@@H](OC[C@H]3OC(OCCCl)[C@H](O)[C@@H](O)[C@@H]3O)[C@H](O)[C@@H](O)[C@@H]2O)[C@H](O)[C@@H](O)[C@@H]1O (stereo partly drawn) [α-O(CH2)2Cl, n=3, 2-chloroethyl [O-β-D-glucopyranosyl-1,6]2-D-glucopyranoside] | + |
| OC[C@H]1O[C@@H](OC[C@H]2O[C@@H](OC[C@H]3O[C@@H](OC[C@H]4OC(OCCCl)[C@H](O)[C@@H](O)[C@@H]4O)[C@H](O)[C@@H](O)[C@@H]3O)[C@H](O)[C@@H](O)[C@@H]2O)[C@H](O)[C@@H](O)[C@@H]1O (stereo partly drawn) [α-O(CH2)2Cl, n=4, 2-chloroethyl [O-β-D-glucopyranosyl-1,6]3-D-glucopyranoside] | + |
| OC[C@H]1O[C@@H](OC[C@H]2O[C@@H](OC[C@H]3O[C@@H](OC[C@H]4O[C@@H](OC[C@H]5O[C@@H](OC[C@H]6O[C@@H](OC[C@H]7OC(OCCCl)[C@H](O)[C@@H](O)[C@@H]7O)[C@H](O)[C@@H](O)[C@@H]6O)[C@H](O)[C@@H](O)[C@@H]5O)[C@H](O)[C@@H](O)[C@@H]4O)[C@H](O)[C@@H](O)[C@@H]3O)[C@H](O)[C@@H](O)[C@@H]2O)[C@H](O)[C@@H](O)[C@@H]1O (stereo partly drawn) [α-O(CH2)2Cl, n=7, 2-chloroethyl [O-β-D-glucopyranosyl-1,6]6-D-glucopyranoside] | + |
| OC[C@H]1O[C@@H](OC[C@H]2O[C@@H](OC[C@H]3O[C@@H](OC[C@H]4O[C@@H](OC[C@H]5O[C@@H](OC[C@H]6O[C@@H](OC[C@H]7O[C@@H](OC[C@H]8O[C@H](OCCCl)[C@H](O)[C@@H](O)[C@@H]8O)[C@H](O)[C@@H](O)[C@@H]7O)[C@H](O)[C@@H](O)[C@@H]6O)[C@H](O)[C@@H](O)[C@@H]5O)[C@H](O)[C@@H](O)[C@@H]4O)[C@H](O)[C@@H](O)[C@@H]3O)[C@H](O)[C@@H](O)[C@@H]2O)[C@H](O)[C@@H](O)[C@@H]1O [α-O(CH2)2Cl, n=8, 2-chloroethyl [O-β-D-glucopyranosyl-1,6]7-D-glucopyranoside] | + |
| OC[C@H]1O[C@@H](OC[C@H]2O[C@@H](OC[C@H]3O[C@@H](OC[C@H]4O[C@@H](OC[C@H]5O[C@@H](OC[C@H]6O[C@@H](OC[C@H]7O[C@@H](OC[C@H]8O[C@@H](OC[C@H]9OC(OCCCl)[C@H](O)[C@@H](O)[C@@H]9O)[C@H](O)[C@@H](O)[C@@H]8O)[C@H](O)[C@@H](O)[C@@H]7O)[C@H](O)[C@@H](O)[C@@H]6O)[C@H](O)[C@@H](O)[C@@H]5O)[C@H](O)[C@@H](O)[C@@H]4O)[C@H](O)[C@@H](O)[C@@H]3O)[C@H](O)[C@@H](O)[C@@H]2O)[C@H](O)[C@@H](O)[C@@H]1O (stereo partly drawn) [α-O(CH2)2Cl, n=9, 2-chloroethyl [O-β-D-glucopyranosyl-1,6]8-D-glucopyranoside] | + |
| [N-]=[N+]=NCCOC1OC(COC2OC(COC3OC(CO)C(O)C(O)C3O)C(O)C(O)C2O)C(O)C(O)C1O (stereo not drawn) [α-O(CH2)2N3, n=3] | + |
| [N-]=[N+]=NCCOC1OC(COC2OC(COC3OC(COC4OC(COC5OC(COC6OC(COC7OC(CO)C(O)C(O)C7O)C(O)C(O)C6O)C(O)C(O)C5O)C(O)C(O)C4O)C(O)C(O)C3O)C(O)C(O)C2O)C(O)C(O)C1O (stereo not drawn) [α-O(CH2)2N3, n=7] | + |
| [N-]=[N+]=NCCOC1OC(COC2OC(COC3OC(COC4OC(COC5OC(COC6OC(COC7OC(COC8OC(CO)C(O)C(O)C8O)C(O)C(O)C7O)C(O)C(O)C6O)C(O)C(O)C5O)C(O)C(O)C4O)C(O)C(O)C3O)C(O)C(O)C2O)C(O)C(O)C1O (stereo not drawn) [α-O(CH2)2N3, n=8] | + |
| [N-]=[N+]=NCCOC1OC(COC2OC(COC3OC(COC4OC(COC5OC(COC6OC(COC7OC(COC8OC(COC9OC(CO)C(O)C(O)C9O)C(O)C(O)C8O)C(O)C(O)C7O)C(O)C(O)C6O)C(O)C(O)C5O)C(O)C(O)C4O)C(O)C(O)C3O)C(O)C(O)C2O)C(O)C(O)C1O (stereo not drawn) [α-O(CH2)2N3, n=9] | + |

Next, values leading:

| ELISA assay data: glucan active in detection of anti-beta glucan IgG | Structure (SMILES) |
| --- | --- |
| + | OC[C@H]1O[C@@H](OC[C@H]2O[C@@H](OC[C@H]3O[C@@H](OC[C@H]4O[C@@H](OC[C@H]5O[C@H](OCCCl)[C@H](O)[C@@H](O)[C@@H]5O)[C@H](O)[C@@H](O)[C@@H]4O)[C@H](O)[C@@H](O)[C@@H]3O)[C@H](O)[C@@H](O)[C@@H]2O)[C@H](O)[C@@H](O)[C@@H]1O [α-O(CH2)2Cl, n=5, 2-chloroethyl [O-β-D-glucopyranosyl-1,6]4-D-glucopyranoside] |
| + | OC[C@H]1O[C@@H](OC[C@H]2O[C@@H](OC[C@H]3O[C@@H](OC[C@H]4O[C@@H](OC[C@H]5O[C@@H](OC[C@H]6OC(OCCCl)[C@H](O)[C@@H](O)[C@@H]6O)[C@H](O)[C@@H](O)[C@@H]5O)[C@H](O)[C@@H](O)[C@@H]4O)[C@H](O)[C@@H](O)[C@@H]3O)[C@H](O)[C@@H](O)[C@@H]2O)[C@H](O)[C@@H](O)[C@@H]1O (stereo partly drawn) [α-O(CH2)2Cl, n=6, 2-chloroethyl [O-β-D-glucopyranosyl-1,6]5-D-glucopyranoside] |
| + | [N-]=[N+]=NCCO[C@H]1O[C@H](CO[C@@H]2O[C@H](CO[C@@H]3O[C@H](CO[C@@H]4O[C@H](CO)[C@@H](O)[C@H](O)[C@H]4O)[C@@H](O)[C@H](O)[C@H]3O)[C@@H](O)[C@H](O)[C@H]2O)[C@@H](O)[C@H](O)[C@H]1O [α-O(CH2)2N3, n=4, 1-O-(2-azidoethyl)-6-[O-β-D-glucopyranosyl-1,6]3-α-D-glucopyranoside] |
| + | [N-]=[N+]=NCCOC1OC(COC2OC(COC3OC(COC4OC(COC5OC(CO)C(O)C(O)C5O)C(O)C(O)C4O)C(O)C(O)C3O)C(O)C(O)C2O)C(O)C(O)C1O (stereo not drawn) [α-O(CH2)2N3, n=5] |
| + | [N-]=[N+]=NCCOC1OC(COC2OC(COC3OC(COC4OC(COC5OC(COC6OC(CO)C(O)C(O)C6O)C(O)C(O)C5O)C(O)C(O)C4O)C(O)C(O)C3O)C(O)C(O)C2O)C(O)C(O)C1O (stereo not drawn) [α-O(CH2)2N3, n=6] |
| + | [N-]=[N+]=NCCO[C@@H]1O[C@H](CO[C@@H]2O[C@H](CO[C@@H]3O[C@H](CO[C@@H]4O[C@H](CO[C@@H]5O[C@H](CO)[C@@H](O)[C@H](O)[C@H]5O)[C@@H](O)[C@H](O)[C@H]4O)[C@@H](O)[C@H](O)[C@H]3O)[C@@H](O)[C@H](O)[C@H]2O)[C@@H](O)[C@H](O)[C@H]1O [β-O(CH2)2N3, n=5, 2-azidoethyl [O-β-D-glucopyranosyl-1,6]4-β-D-glucopyranoside] |
